Laboratory results from US20050208197A1, “Refreshment capable of stimulating movement of digestive tract” (priority 2002, published 2005).

Assays:
stomach emptying in mice = experiment: Stomach emptying in mice (phenol red test feed); type: in vivo; conditions: oral, dose-dependent, P<0.05 vs distilled water, FIG. 15
Protocol: Using a stomach tube, ddY line mice (10 animals in each group) were orally administered each of distilled water, the active substances α and β following an 18-hour fasting period. 60 minutes after administration, each animal was orally administered a test feed (0.2 mL/animal; 1.5% methylcellulose solution containing 0.05% phenol red) using the same technique. After 15 minutes, the animals were sacrificed by cervical dislocation and the stomachs were removed. The stomachs, along with their contents, were then homogenized in 10 mL 0.1N NaOH and the homogenates were allowed to stand for 1 hour at room temperature. To 1 mL of the resulting supernatant, 0.1 mL 20% trichloroacetic acid was added and the supernatant was centrifuged to precipitate proteins. Subsequently, 0.5 ml of the resulting supernatant was collected and 0.5 mL 0.5N NaOH was added to color the solution. The absorbance of the solution at 560 nm was measured to determine the amount of phenol red remaining in the stomach. The rate of stomach emptying was determined by the following equation: Stomach emptying rate (%)=(A−B)/A×100 where ‘A’ is the amount of phenol red in the stomach immediately after the administration of the test feed; and ‘B’ is the amount of phenol red remaining in the stomach 15 minutes after the administration of the test feed. 2. Results

[1] = Water solubility of the isolated active substances; type: physicochemical
Text: In another aspect, the present invention provides a method for separating/purifying the active substances α and β. Specifically, the method includes freeze-drying beer, which serves as the starting material, to remove volatile components and collect non-volatile components; subjecting the non-volatile components to a chromatography using synthetic absorbent to remove unadsorbed components and collect adsorbed components in a crude fraction containing concentrated active substances; subjecting the crude fraction to a weakly acidic cation exchange chromatography to remove unadsorved components; eluting the active substances with acidic methanol (methanol/hydrochloric acid); subjecting the eluate to gel filtration chromatography using 0.01N hydrochloric acid to obtain a purified fraction; subjecting the purified fraction to C18 high performance liquid chromatography (ODS-HPLC) for further purification to isolate the two active substances. The active substances so obtained were water-soluble.

[2] = biological target: T1, human muscarinic M3 receptors (Homo sapiens, UniProt P20309); experiment: Test for binding activity to muscarinic M3 receptors ([3H]4-DAMP displacement)
T1 construct: expressed in transfected cells; host or cells: CHO (Chinese hamster ovary) cells, membrane preparation
Protocol: The mixture was then incubated at 22° C. for 60 min. Subsequently, the reaction mixture was filtered through a glass fiber filter (GF/B, PACKARD) while aspirated. Once the reaction came to an end, the mixture was washed several times with ice-chilled buffer. A scintillation cocktail (Microscint O, PACKARD) was then added to the filter, and the residual radioactivity was measured by a liquid scintillation counter (Topcount, PACKARD).

T1 sequence (P20309 whole entry): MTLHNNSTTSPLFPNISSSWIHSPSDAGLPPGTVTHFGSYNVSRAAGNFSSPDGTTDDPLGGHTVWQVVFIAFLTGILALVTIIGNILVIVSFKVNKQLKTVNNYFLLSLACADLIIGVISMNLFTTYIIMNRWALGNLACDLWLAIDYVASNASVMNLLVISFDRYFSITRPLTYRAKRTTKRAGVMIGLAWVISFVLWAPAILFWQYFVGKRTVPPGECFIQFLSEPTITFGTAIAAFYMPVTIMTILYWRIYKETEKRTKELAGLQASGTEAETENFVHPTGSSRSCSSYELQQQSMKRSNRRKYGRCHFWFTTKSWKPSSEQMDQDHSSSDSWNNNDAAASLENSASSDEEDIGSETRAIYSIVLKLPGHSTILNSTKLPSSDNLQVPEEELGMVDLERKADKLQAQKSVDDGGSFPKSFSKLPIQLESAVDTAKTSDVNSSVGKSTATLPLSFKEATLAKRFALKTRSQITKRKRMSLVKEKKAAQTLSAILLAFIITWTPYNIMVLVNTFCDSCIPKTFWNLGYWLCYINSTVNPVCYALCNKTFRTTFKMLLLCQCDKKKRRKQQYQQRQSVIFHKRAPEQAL

solubility in water [1] | IC50 [2] [nM] | SMILES | stimulation of stomach emptying (stomach emptying in mice; 0.3 and 1.0 mg/kg) | stimulation of stomach emptying (stomach emptying in mice; 0.1 and 0.3 mg/kg)
water-soluble | 4180 | N=C(N)NCCCCNC(=O)/C=C/c1ccc2c(c1)[C@@H](C(=O)NCCCCNC(=N)N)[C@H](c1ccc(O)cc1)O2 [active substance β] | significantly stimulated stomach emptying | 
water-soluble | 1180 | N=C(N)NCCCCNC(=O)/C=C/c1ccc2c(c1)[C@H](C(=O)NCCCCNC(=N)N)[C@H](c1ccc(O)cc1)O2 [active substance α] |  | significantly stimulated stomach emptying
